Non-standard residues stand in square brackets, D forms with d. Residues, ends and D or L forms follow the SMILES beside them. *: point of attachment. X1 = CN(C)c1ccc2c(-c3cc(C(=O)*)ccc3C(=O)[O-])c3ccc(=[N+](C)C)cc-3oc2c1; hArg = N=C(N)NCCCC[C@H](N)C(=O)O; Aib = CC(C)(N)C(=O)O
Experiments:
nLuc-PTHR1 [1] = target: T1, nLuc-PTHR1 (Homo sapiens, UniProt Q03431); format: binding; settings: HEK293
T1 sequence (Q03431 27-593): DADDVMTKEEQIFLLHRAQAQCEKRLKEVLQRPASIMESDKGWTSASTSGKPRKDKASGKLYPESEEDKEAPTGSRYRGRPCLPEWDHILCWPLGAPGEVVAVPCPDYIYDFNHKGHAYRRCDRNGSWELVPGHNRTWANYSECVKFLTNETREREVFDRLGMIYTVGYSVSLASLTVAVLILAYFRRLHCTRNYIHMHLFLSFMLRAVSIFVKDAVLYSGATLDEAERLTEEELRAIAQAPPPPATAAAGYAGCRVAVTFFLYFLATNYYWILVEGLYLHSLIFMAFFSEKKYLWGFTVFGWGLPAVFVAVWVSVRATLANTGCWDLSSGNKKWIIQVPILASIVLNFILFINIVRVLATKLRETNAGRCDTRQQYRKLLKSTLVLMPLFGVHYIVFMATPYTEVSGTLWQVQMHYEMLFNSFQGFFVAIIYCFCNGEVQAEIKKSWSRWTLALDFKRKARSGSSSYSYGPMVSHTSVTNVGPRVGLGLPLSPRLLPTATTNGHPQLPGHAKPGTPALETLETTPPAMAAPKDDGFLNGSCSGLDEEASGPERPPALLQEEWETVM

nLuc-ΔECD-PTHR1 = target: T2, nLuc-ΔECD-PTHR1 (Homo sapiens, UniProt Q03431); assay: NanoBRET direct binding on truncated receptor lacking the extracellular domain
T2 sequence (Q03431 182-593 limits assumed): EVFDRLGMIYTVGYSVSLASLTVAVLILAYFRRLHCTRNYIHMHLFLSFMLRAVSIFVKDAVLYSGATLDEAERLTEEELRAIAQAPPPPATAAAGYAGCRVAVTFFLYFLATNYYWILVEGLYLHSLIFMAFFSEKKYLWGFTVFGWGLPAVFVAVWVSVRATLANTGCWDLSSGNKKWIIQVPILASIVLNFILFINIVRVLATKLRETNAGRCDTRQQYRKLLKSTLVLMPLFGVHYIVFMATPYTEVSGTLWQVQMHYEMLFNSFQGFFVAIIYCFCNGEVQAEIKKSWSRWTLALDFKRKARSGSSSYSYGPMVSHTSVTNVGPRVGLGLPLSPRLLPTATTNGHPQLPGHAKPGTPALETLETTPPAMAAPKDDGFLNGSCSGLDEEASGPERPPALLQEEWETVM

nLuc-PTHR1 [2] = target: T1, nLuc-PTHR1; assay: NanoBRET equilibrium competition binding with tracer PTH; settings: ABL up to 1 μM
WT-PTHR1 = target: T3, WT-PTHR1 (Homo sapiens, UniProt Q03431); assay: GloSensor cAMP assay in GP2.3 cells; format: cell-based; settings: HEK293, read-out: cAMP formation %Emax
T3 sequence (Q03431 27-593): T1 sequence (Q03431 27-593)

Molecule | koff (nLuc-PTHR1 [1]) | kon (nLuc-PTHR1 [1]) | koff (nLuc-ΔECD-PTHR1) | kon (nLuc-ΔECD-PTHR1) | displacement of PTH(1-34)K35^TMR tracer (in words) (nLuc-PTHR1 [2]) | Emax (WT-PTHR1)
CC[C@H](C)[C@H](NC(=O)[C@H](CC(C)C)NC(=O)[C@H](CCCCN)NC(=O)[C@H](Cc1c[nH]cn1)NC(=O)[C@H](CC(C)C)NC(=O)[C@H](Cc1ccccc1)NC(=O)[C@H](C)NC(=O)[C@H](CCCNC(=N)N)NC(=O)[C@H](CCCNC(=N)N)NC(=O)[C@H](CCCNC(=N)N)NC(=O)[C@H](C)NC(=O)[C@H](CC(=O)O)NC(=O)[C@H](CCC(N)=O)NC(=O)[C@@H](NC(=O)[C@H](Cc1c[nH]c2ccccc12)NC(=O)[C@H](CCCCN)NC(=O)[C@H](C)NC(=O)[C@H](CCCNC(=N)N)NC(=O)[C@H](CCC(N)=O)NC(=O)[C@H](Cc1c[nH]cn1)NC(=O)[C@H](CCSC)NC(=O)[C@H](CC(C)C)NC(=O)[C@H](CCC(N)=O)NC(=O)[C@@H](NC(=O)[C@H](CCC(=O)O)NC(=O)[C@H](C)NC(=O)[C@@H](NC(=O)[C@H](C)N)C(C)C)[C@@H](C)CC)[C@@H](C)CC)C(=O)N[C@@H](C)C(=O)N[C@@H](CCC(=O)O)C(=O)N[C@H](C(=O)N[C@@H](Cc1c[nH]cn1)C(=O)N[C@H](C(=O)N[C@@H](C)C(=O)N[C@@H](CCCCNC(=O)c1ccc(C(=O)[O-])c(-c2c3ccc(=[N+](C)C)cc-3oc3cc(N(C)C)ccc23)c1)C(N)=O)[C@@H](C)O)[C@@H](C)CC [LA-PTH(1-34)-35K^TMR] (H-AVAEIQLMHQRAKWIQDARRRAFLHKLIAEIHTAK(X1)-NH2; N-terminus assumed) | 0.00056 ± 0.0002 s⁻¹ | 230000 ± 40000 M⁻¹ s⁻¹ | 0.0097 ± 0.003 s⁻¹ | 130000 ± 10000 M⁻¹ s⁻¹ |  | 
ABL: synthetic analogue of PTHrP(1-34) used clinically for osteoporosis |  |  |  |  | failed to fully inhibit | 
CC[C@H](C)[C@H](NC(=O)[C@H](CCC(=O)O)NC(=O)C(C)(C)NC(=O)[C@@H](NC(=O)C(C)(C)N)C(C)C)C(=O)N[C@@H](CCC(N)=O)C(=O)N[C@@H](CC(C)C)C(=O)N[C@@H](CCSC)C(=O)N[C@@H](Cc1c[nH]cn1)C(=O)N[C@@H](CCC(N)=O)C(=O)N[C@@H](CCCCNC(=N)N)C(=O)N[C@@H](C)C(=O)N[C@@H](CCCCN)C(=O)N[C@@H](Cc1c[nH]c2ccccc12)C(=O)N[C@@H](CCCCNC(=O)c1ccc(C(=O)[O-])c(-c2c3ccc(=[N+](C)C)cc-3oc3cc(N(C)C)ccc23)c1)C(N)=O [M-PTH(1-14)-15K^TMR] (H-[Aib]V[Aib]EIQLMHQ[hArg]AKWK(X1)-NH2; N-terminus assumed) | 0.024 ± 0.001 s⁻¹ | 77000 ± 20000 M⁻¹ s⁻¹ | 0.018 ± 0.003 s⁻¹ | 180000 ± 50000 M⁻¹ s⁻¹ |  | 
CC[C@H](C)[C@H](NC(=O)[C@H](CCCCNC(=O)c1ccc(C(=O)[O-])c(-c2c3ccc(=[N+](C)C)cc-3oc3cc(N(C)C)ccc23)c1)NC(=O)[C@H](C)NC(=O)[C@@H](NC(=O)[C@H](Cc1c[nH]cn1)NC(=O)[C@@H](NC(=O)[C@H](CCC(=O)O)NC(=O)[C@H](C)NC(=O)[C@@H](NC(=O)[C@H](CC(C)C)NC(=O)[C@H](Cc1c[nH]cn1)NC(=O)[C@H](Cc1c[nH]cn1)NC(=O)[C@H](CC(C)C)NC(=O)[C@H](Cc1ccccc1)NC(=O)[C@H](Cc1ccccc1)NC(=O)[C@H](CCCNC(=N)N)NC(=O)[C@H](CCCNC(=N)N)NC(=O)[C@H](CCCNC(=N)N)NC(=O)[C@H](CC(C)C)NC(=O)[C@H](CC(=O)O)NC(=O)[C@H](CC(N)=O)NC(=O)[C@H](CC(C)C)NC(=O)[C@H](Cc1c[nH]cn1)NC(=O)[C@H](CCCCN)NC(=O)CNC(=O)[C@H](CC(C)C)NC(=O)[C@H](CC(N)=O)NC(=O)[C@H](Cc1c[nH]cn1)NC(=O)[C@H](CCSC)NC(=O)[C@H](CC(C)C)NC(=O)[C@H](CCC(N)=O)NC(=O)[C@@H](NC(=O)[C@H](CCC(=O)O)NC(=O)[C@H](CO)NC(=O)[C@@H](NC(=O)[C@@H](N)CO)C(C)C)[C@@H](C)CC)[C@@H](C)CC)[C@@H](C)CC)[C@@H](C)O)C(N)=O [PTH[1-16] PTHrP[17-36]] (H-SVSEIQLMHNLGKHLNDLRRRFFLHHLIAEIHTAK(X1)I-NH2; N-terminus assumed) | 0.0017 ± 0.001 s⁻¹ | 530000 ± 30000 M⁻¹ s⁻¹ |  |  |  | 103 ± 4%
